Among the data in ChEMBL document CHEMBL2016443, “From ApoA1 upregulation to BET family bromodomain inhibition: discovery of I-BET151” (Bioorg Med Chem Lett, 2012) are EC170, Activity and IC50 values, retold here.

The term IC50 denotes the point on the concentration scale where inhibition reaches its midpoint. Low values mean inhibition by little substance, high ones a need for much substance.

Structures are written as SMILES. Activity calls are given as the source filed them. No cut-off for these calls is given here. A value given as a limit tells only on which side of the number the result lay.

The test system of test [1] is HepG2. The test can be described thus: Upregulation of ApoA1 expression in human HepG2 cells assessed as concentration required to increase 70% of luciferase activity after 18 hrs by luciferase reporter gene assay. The test is classed as functional.
The subject of test [2] is THP-1. Put plainly: Antiinflammatory activity in human THP1 cells. The test is classed as functional, cell-based.
Test [3] deals with Cytochrome P450 3A4 (Homo sapiens, UniProt P08684). Put plainly: Inhibition of CYP3A4. It counts as ADME.
For test [4], the system named is PBMC. The test can be described thus: Inhibition of LPS-stimulated TNFalpha production in human PBMC. The test is classed as functional, cell-based.
The test system of test [5] is PBMC. The test can be described thus: Inhibition of LPS-stimulated IL-6 production in human PBMC. It counts as functional, cell-based.
For test [6], the target named is Cytochrome P450 2C9 (Homo sapiens, UniProt P11712). Put plainly: Inhibition of CYP2C9. It counts as ADME.
Sequence of Cytochrome P450 2C9 (P11712 whole entry): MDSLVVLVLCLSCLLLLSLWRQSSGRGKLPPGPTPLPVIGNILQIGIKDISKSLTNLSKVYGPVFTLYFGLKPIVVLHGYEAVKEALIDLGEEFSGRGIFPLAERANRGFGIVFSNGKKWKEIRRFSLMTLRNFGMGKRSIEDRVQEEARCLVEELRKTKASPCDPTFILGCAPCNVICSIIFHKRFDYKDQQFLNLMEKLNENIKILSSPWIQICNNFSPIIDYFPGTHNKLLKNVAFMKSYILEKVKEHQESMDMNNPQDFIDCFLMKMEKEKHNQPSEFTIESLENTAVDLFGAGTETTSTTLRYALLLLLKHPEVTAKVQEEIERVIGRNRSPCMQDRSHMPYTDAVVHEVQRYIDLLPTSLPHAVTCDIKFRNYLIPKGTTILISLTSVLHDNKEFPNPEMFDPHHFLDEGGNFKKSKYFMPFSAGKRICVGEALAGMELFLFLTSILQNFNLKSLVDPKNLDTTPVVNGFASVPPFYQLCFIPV

Sequence of Cytochrome P450 3A4 (P08684 whole entry): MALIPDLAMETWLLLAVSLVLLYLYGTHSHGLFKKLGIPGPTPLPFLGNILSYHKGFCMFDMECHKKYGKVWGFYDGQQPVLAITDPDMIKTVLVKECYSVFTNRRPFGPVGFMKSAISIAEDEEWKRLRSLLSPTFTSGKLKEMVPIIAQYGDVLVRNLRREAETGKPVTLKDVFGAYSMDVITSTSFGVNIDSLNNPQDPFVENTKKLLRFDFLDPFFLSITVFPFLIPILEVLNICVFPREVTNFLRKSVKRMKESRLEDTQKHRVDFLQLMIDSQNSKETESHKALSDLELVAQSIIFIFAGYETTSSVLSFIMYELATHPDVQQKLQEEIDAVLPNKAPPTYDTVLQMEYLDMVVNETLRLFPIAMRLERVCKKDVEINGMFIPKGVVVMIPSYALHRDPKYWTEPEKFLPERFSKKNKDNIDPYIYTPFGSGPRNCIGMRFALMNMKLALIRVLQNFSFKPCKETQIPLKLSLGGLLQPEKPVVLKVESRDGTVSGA

Regarding `CC[C@H](c1ccccc1)n1c(=O)[nH]c2cnc3cc(-c4c(C)noc4C)c(OC)cc3c21`, in test [1], the EC170 came to 0.03 µM. Besides, the outcome in test [2], in test [4] and in test [5] was Active. Moreover, the IC50 in test [3] and in test [6] was 2400 nM each time.
As to `COc1cc2c(Nc3ccccc3C(C)(C)C)c(C(=O)O)cnc2cc1-c1c(C)noc1C`, the EC170 in test [1] amounted to 0.28 µM. Also, the result in test [2], in test [4] and in test [5] was Active.
Take `COc1cc2c(NCc3ccccn3)c(C(N)=O)cnc2cc1-c1c(C)noc1C`: the EC170 in test [1] came out at 2.57 µM. Moreover, the result in test [2], in test [4] and in test [5] was Active.
In the case of `COc1cc2c(cc1-c1c(C)noc1C)ncc1[nH]c(=O)n(-c3ccccc3C(C)(C)C)c12`, the EC170 in test [1] was 0.05 µM. The outcome in test [2], in test [4] and in test [5] was Active. Moreover, the IC50 in test [3] stood at 1700 nM; in test [6], 900 nM.
As for `CCNC(=O)C[C@@H]1N=C(c2ccc(Cl)cc2)c2cc(OC)ccc2-n2c(C)nnc21` [MOLIBRESIB], the EC170 in test [1] was 0.2 µM.
`COc1cc2c(Nc3ccccc3C(C)(C)C)c(C(N)=O)cnc2cc1-c1c(C)noc1C`: the EC170 in test [1] amounted to 0.13 µM. Moreover, the result in test [2], in test [4] and in test [5] was Active. The IC50 in test [3] amounted to 1900 nM; in test [6], 1200 nM.
With `COc1cc2c(cc1-c1c(C)noc1C)ncc1[nH]c(=O)n([C@@H](C)c3ccccc3)c12`, the EC170 in test [1] was 0.47 µM. For the same compound, the result in test [2], in test [4] and in test [5] was Active.
As for `COc1cc2c(Nc3ccccc3C(=O)N3CCCCC3)c(C(N)=O)cnc2cc1-c1c(C)noc1C`, in test [1], the EC170 stood at 0.13 µM. Further, the outcome in test [2], in test [4] and in test [5] was Active. Besides, the IC50 in test [3] worked out at 1800 nM; in test [6], 8500 nM.
For the compound `COc1cc2c(cc1-c1c(C)noc1C)ncc1[nH]c(=O)n([C@H](C)c3ccccc3)c12`, the EC170 in test [1] turned out to be 0.01 µM. Further, the result in test [2], in test [4] and in test [5] was Active. Besides, the values for the 50% inhibitory concentration (IC50) in test [3] and in test [6] were 1500 nM and 1000 nM, respectively.
Consider `Cc1cc2c(Nc3ccccc3C(C)(C)C)c(C(=O)O)cnc2cc1-c1c(C)noc1C`, for which the EC170 in test [1] amounted to 1.99 µM. Also, the result in test [2], in test [4] and in test [5] was Active.
In the case of `COc1ccccc1Nc1c(C(N)=O)cnc2cc(-c3c(C)noc3C)ccc12`, the EC170 in test [1] worked out at 0.39 µM. Moreover, the result in test [2], in test [4] and in test [5] was Active.
Regarding `COc1cc2c(cc1-c1c(C)noc1C)ncc1[nH]c(=O)n(C(C)c3ccccc3)c12` (racemic), in test [1], the EC170 came out at 0.03 µM. Further, the result in test [2], in test [4] and in test [5] was Active. The figures for the IC50 in test [3] and in test [6] were 2000 nM and 1300 nM, respectively.
As to `Cc1noc(C)c1-c1ccc2c(Nc3ccccc3)c(C(N)=O)cnc2c1`, the EC170 in test [1] amounted to 0.5 µM. The result in test [2], in test [4] and in test [5] was Active. In addition, the IC50 stood at 17000 nM in test [3] and 2100 nM in test [6].
Regarding `Cc1noc(C)c1-c1ccc2c(Nc3ccccc3C(C)(C)C)c(C(=O)O)cnc2c1C`, the EC170 in test [1] worked out at 1.05 µM. Further, the result in test [2], in test [4] and in test [5] was Active.
With `Cc1noc(C)c1-c1ccc2c(Nc3ccccc3)ccnc2c1`, in test [1], the EC170 was 4.27 µM. Further, the result in test [2], in test [4] and in test [5] was Active.
Take `Cc1noc(C)c1-c1ccc2c(Nc3ccccc3)c(C(=O)NCc3ccccc3)cnc2c1`: in test [1], the EC170 stood at 1.44 µM. The result in test [2], in test [4] and in test [5] was Active.
As to `Cc1noc(C)c1-c1ccc2c(Nc3ccccc3)c(C(=O)O)cnc2c1`, the EC170 in test [1] is 1.74 µM. The result in test [2], in test [4] and in test [5] was Active. Also, the IC50 in test [3] and in test [6] was greater than 33000 nM each time.
Turning to `Cc1noc(C)c1-c1ccc2c(Nc3ccccc3C(C)(C)C)c(C(=O)O)cnc2c1`, the EC170 in test [1] was 0.32 µM. For the same compound, the outcome in test [2], in test [4] and in test [5] was Active. The IC50 in test [3] worked out at 13000 nM; in test [6], 10000 nM.
On to `Cc1noc(C)c1-c1ccc2c(Nc3ccccc3C(C)(C)C)c(C(N)=O)cnc2c1`, for which the EC170 in test [1] is 0.63 µM. The outcome in test [2], in test [4] and in test [5] was Active. The half-maximal inhibitory concentration (IC50) in test [3] stood at 2000 nM; in test [6] it was 700 nM.
`COc1cc2c(NC3CCCCC3)c(C(N)=O)cnc2cc1-c1c(C)noc1C`: the EC170 in test [1] stood at 0.45 µM. In addition, the result in test [2], in test [4] and in test [5] was Active.
As to `Cc1noc(C)c1-c1ccc2c(Nc3ccccc3F)c(C(N)=O)cnc2c1`, the EC170 in test [1] was 0.5 µM. The result in test [2], in test [4] and in test [5] was Active.
Regarding `Cc1ccccc1Nc1c(C(N)=O)cnc2cc(-c3c(C)noc3C)ccc12`, the EC170 in test [1] was 0.44 µM. Further, the outcome in test [2], in test [4] and in test [5] was Active.
Regarding `COc1cc2c(Nc3ccccc3CCN3CCOCC3)c(C(N)=O)cnc2cc1-c1c(C)noc1C`, in test [1], the EC170 came to 0.09 µM. The result in test [2], in test [4] and in test [5] was Active. The IC50 turned out to be 1900 nM in test [3] and 2200 nM in test [6].
For `COc1cc2c(Nc3ccccc3F)c(C(N)=O)cnc2cc1-c1c(C)noc1C`, the EC170 in test [1] is 0.3 µM. For the same compound, the outcome in test [2], in test [4] and in test [5] was Active. Moreover, the IC50 stood at 4700 nM in test [3] and 600 nM in test [6].
Take `COc1cc2c(cc1-c1c(C)noc1C)ncc1[nH]c(=O)n(-c3ccccc3OC(F)(F)F)c12`: the EC170 in test [1] is 0.09 µM. Besides, the outcome in test [2], in test [4] and in test [5] was Active. The IC50 in test [6] was 2300 nM.
For the compound `COc1cc2c(cc1-c1c(C)noc1C)ncc1[nH]c(=O)n(Cc3ccccc3)c12`, the EC170 in test [1] was 0.06 µM. Further, the result in test [2], in test [4] and in test [5] was Active. Also, the IC50 in test [6] was found to be 1200 nM.
In the case of `COc1cc2c(cc1-c1c(C)noc1C)ncc1[nH]c(=O)n(-c3ccccc3F)c12`, in test [1], the EC170 is 0.76 µM. The outcome in test [2], in test [4] and in test [5] was Active.
Consider `Cc1noc(C)c1-c1ccc2c(Nc3ccccc3)c(C(=O)N(C)C)cnc2c1`, for which the EC170 in test [1] is 7.08 µM. The outcome in test [2], in test [4] and in test [5] was Active.
For the compound `Cc1noc(C)c1-c1ccc2c(Nc3ccccc3Cl)c(C(N)=O)cnc2c1`, the EC170 in test [1] came to 1 µM. Besides, the result in test [2], in test [4] and in test [5] was Active.
On to `COc1cc2c(NCc3ccccc3)c(C(N)=O)cnc2cc1-c1c(C)noc1C`, for which, in test [1], the EC170 turned out to be 1.07 µM. The result in test [2], in test [4] and in test [5] was Active.
In the case of `COc1cc2c(Nc3ccccc3C(=O)c3ccccn3)c(C(N)=O)cnc2cc1-c1c(C)noc1C`, the EC170 in test [1] was 0.2 µM. The outcome in test [2], in test [4] and in test [5] was Active. In addition, the IC50 in test [3] came to 3100 nM; in test [6], 9900 nM.
As for `Cc1noc(C)c1-c1ccc2c(Nc3ccccc3C#N)c(C(N)=O)cnc2c1`, the EC170 in test [1] turned out to be 1.02 µM. Moreover, the outcome in test [2], in test [4] and in test [5] was Active.
With `COc1cc2c(cc1-c1c(C)noc1C)ncc1[nH]c(=O)n(Cc3ccccn3)c12`, the result in test [2], in test [4] and in test [5] was Active. The midpoint of inhibition in test [3], the IC50, lay at 12900 nM.
As for `Cc1ccc(Nc2c(C(N)=O)cnc3cc(-c4c(C)noc4C)ccc23)cc1`, the EC170 in test [1] was determined as 1.05 µM. In addition, the result in test [2], in test [4] and in test [5] was Active.
`Cc1cccc(Nc2c(C(N)=O)cnc3cc(-c4c(C)noc4C)ccc23)c1`: the EC170 in test [1] was 0.6 µM. The outcome in test [2], in test [4] and in test [5] was Active.
